Test results: patent US20240409585A1, “MACROCYCLIC IMMUNOMODULATORS” (priority 2021, published 2024)
Numbered stars: 1 amine (or outer) side, 2 acyl side, 3 side chain; on linkers, the order of the positions; unused ones are H or OH. Bridge positions count the residues as written; N and C are the ends. Square brackets hold non-standard residues; d marks the D form. Peptide text beside a SMILES is read from it. * marks the point of attachment. X44 = COc1cc(F)cc(-c2ccc(C[C@H](N[*:1])C(=O)[*:2])cc2)c1; Tyr(3-NO2) = N[C@@H](Cc1ccc(O)c([N+](=O)[O-])c1)C(=O)O; Ala(morpholin-4-yl) = N[C@@H](CN1CCOCC1)C(=O)O; Phe(4-CONH2) = NC(=O)c1ccc(C[C@H](N)C(=O)O)cc1; Phe(4-COOH) = N[C@@H](Cc1ccc(C(=O)O)cc1)C(=O)O; Bip = N[C@@H](Cc1ccc(-c2ccccc2)cc1)C(=O)O; Phe(3-OMe) = COc1cccc(C[C@H](N)C(=O)O)c1; Phe(4-CN) = N#Cc1ccc(C[C@H](N)C(=O)O)cc1; Phe(3-Me) = Cc1cccc(C[C@H](N)C(=O)O)c1; Phe(2-F) = N[C@@H](Cc1ccccc1F)C(=O)O; hTyr = N[C@@H](CCc1ccc(O)cc1)C(=O)O; Val(3-OH) = CC(C)(O)[C@H](N)C(=O)O; 3Pal = N[C@@H](Cc1cccnc1)C(=O)O; 4Pal = N[C@@H](Cc1ccncc1)C(=O)O; Cha = N[C@@H](CC1CCCCC1)C(=O)O; Cit = NC(=O)NCCC[C@H](N)C(=O)O; NMeL = CN[C@@H](CC(C)C)C(=O)O; Pen = CC(C)(S)[C@H](N)C(=O)O; Carboxymethyl = O=C(O)C*; NMeA = CN[C@@H](C)C(=O)O; Orn = NCCC[C@H](N)C(=O)O; Dab = NCC[C@H](N)C(=O)O; Dap = NC[C@H](N)C(=O)O

Molecular target: T1, PE-labeled human PD-L1-Ig binding to Jurkat cell line over-expressing human PD-1 (Jurkat-PD-1) (Homo sapiens, UniProt Q15116)
T1 construct: expressed in transfected cells; host or cells: Jurkat
T1 sequence (Q15116 25-288): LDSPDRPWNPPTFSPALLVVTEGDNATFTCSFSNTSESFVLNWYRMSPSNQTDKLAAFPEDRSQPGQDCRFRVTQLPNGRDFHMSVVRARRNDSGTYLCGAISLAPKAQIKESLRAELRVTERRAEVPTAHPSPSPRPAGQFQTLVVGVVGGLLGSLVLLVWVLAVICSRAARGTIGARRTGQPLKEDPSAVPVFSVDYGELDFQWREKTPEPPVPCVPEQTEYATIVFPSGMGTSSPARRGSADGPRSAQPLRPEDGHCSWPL
Assay: Jurkat-PD-1 Cell Binding High-Content Screening Assay (CBA): Method 1
Details: Jurkat-hPD-1 cells, PE-labeled PD-L1-Ig 20 nM final; read-out: Jurkat HPDL1 PD1 IC50 (uM) (Method 1)

Row | Structure (SMILES) | IC50
1 | COc1cccc(C[C@@H]2NC(=O)[C@H](CC(=O)O)NC(=O)[C@H](Cc3cccc(C)c3)NC(=O)[C@H](CN)NC(=O)CSC[C@@H](C(=O)N[C@@H](C)C(N)=O)NC(=O)[C@@H](CO)NC(=O)[C@H](C(C)C)NC(=O)[C@H](CC(C)C)NC(=O)[C@H](CC(N)=O)NC(=O)[C@@H](C)NC(=O)[C@H](C)N(C)C(=O)[C@H](C(C)C)NC(=O)[C@H](Cc3ccc(-c4ccccc4)cc3)NC(=O)[C@@H](CC(C)C)NC2=O)c1 [Compound 1464] ({CH2CO}-[Dap][Phe(3-Me)]D[Phe(3-OMe)][dL][Bip]V[NMeA][dA]NLV[dS]CA-NH2; thioether N-14) | 0.01 µM
2 | Cc1cccc(C[C@@H]2NC(=O)[C@H](CC(=O)O)NC(=O)[C@H](Cc3ccc(OCC(=O)O)cc3)NC(=O)[C@H](CN3CCOCC3)NC(=O)CSC[C@@H](C(=O)N[C@@H](CCN)C(N)=O)NC(=O)[C@H](CCCN)NC(=O)[C@H](C(C)C)NC(=O)[C@H](Cc3ccccc3F)NC(=O)[C@H](CCN)NC(=O)[C@@H](CC(C)C)NC(=O)[C@H](C)N(C)C(=O)[C@H](CCC(N)=O)NC(=O)[C@H](Cc3ccc(-c4ccccc4)cc3)NC(=O)[C@H](Cc3ccc(C(=O)O)cc3)NC2=O)c1 [Example 2296] ({CH2CO}-[Ala(morpholin-4-yl)]Y(Carboxymethyl)D[Phe(3-Me)][Phe(4-COOH)][Bip]Q[NMeA][dL][Dab][Phe(2-F)]V[Orn]C[Dab]-NH2; thioether N-14) | 0.44 µM
3 | Cc1cccc(C[C@@H]2NC(=O)[C@H](CC(=O)O)NC(=O)[C@H](Cc3ccc(OCC(=O)O)cc3)NC(=O)[C@H](Cc3ccc(OCC(=O)O)cc3)NC(=O)CSC(C)(C)[C@@H](C(=O)N[C@H](C)C(N)=O)NC(=O)[C@H](CCCNC(N)=O)NC(=O)[C@H](C(C)C)NC(=O)[C@H](CC3CCCCC3)NC(=O)[C@H](CCN)NC(=O)[C@@H](CC(C)C)NC(=O)[C@H](C)N(C)C(=O)[C@H](Cc3cnc[nH]3)NC(=O)[C@H](Cc3ccc(-c4ccccc4)cc3)NC(=O)[C@H](Cc3ccc(C(N)=O)cc3)NC2=O)c1 [Compound 2126] ({CH2CO}-Y(Carboxymethyl)Y(Carboxymethyl)D[Phe(3-Me)][Phe(4-CONH2)][Bip]H[NMeA][dL][Dab][Cha]V[Cit][Pen][dA]-NH2; thioether N-14) | 0.66 µM
4 | CC(C)C[C@@H]1NC(=O)[C@H](CCCNC(=N)N)NC(=O)[C@@H](CC(C)C)NC(=O)[C@H](C)N(C)C(=O)[C@H](CCCNC(=N)N)NC(=O)[C@H](Cc2ccc(-c3ccccc3)cc2)NC(=O)[C@H](C(C)C)NC(=O)[C@H](Cc2c[nH]c3ccccc23)NC(=O)[C@H](CC(=O)O)NC(=O)[C@H](CCc2ccc(O)cc2)NC(=O)[C@H](Cc2ccccc2)NC(=O)CSC[C@@H](C(=O)N[C@@H](C)C(N)=O)NC(=O)[C@H]([C@@H](C)O)NC(=O)[C@H](C(C)C)NC1=O [Compound 1106] ({CH2CO}-F[hTyr]DWV[Bip]R[NMeA][dL]RLVTCA-NH2; thioether N-14) | 0.07 µM
5 | CC(C)C[C@@H]1NC(=O)[C@H](CCN)NC(=O)[C@@H](CC(C)C)NC(=O)[C@H](C)N(C)C(=O)[C@H](CCCNC(N)=O)NC(=O)[C@H](Cc2ccc(-c3ccccc3)cc2)NC(=O)[C@H](C(C)C)NC(=O)[C@H](Cc2c[nH]c3ccccc23)NC(=O)[C@H](CC(=O)O)NC(=O)[C@H](Cc2ccc(O)c([N+](=O)[O-])c2)NC(=O)[C@H](Cc2cccnc2)NC(=O)CSC[C@@H](C(=O)N[C@@H](C)C(N)=O)NC(=O)[C@H]([C@@H](C)O)NC(=O)[C@H](C(C)C)NC1=O [Compound 1338] ({CH2CO}-[3Pal][Tyr(3-NO2)]DWV[Bip][Cit][NMeA][dL][Dab]LVTCA-NH2; thioether N-14) | 0.01 µM
6 | CC(C)C[C@@H]1NC(=O)[C@H](C)NC(=O)[C@@H](C)NC(=O)[C@H](C)N(C)C(=O)[C@H](C(C)C)NC(=O)[C@H](Cc2ccc(-c3ccccc3)cc2)NC(=O)[C@H](CC(C)C)NC(=O)[C@H](Cc2c[nH]c3ccccc23)NC(=O)[C@H](CC(=O)O)NC(=O)[C@H](Cc2ccc(O)cc2)NC(=O)[C@H](Cc2ccccc2)NC(=O)CSC[C@@H](C(=O)N[C@@H](C)C(N)=O)NC(=O)[C@H](CO)NC(=O)[C@H](C(C)C)NC1=O [Compound 1733] ({CH2CO}-FYDWL[Bip]V[NMeA][dA]ALVSCA-NH2; thioether N-14) | 0.01 µM
7 | Cc1cccc(C[C@@H]2NC(=O)[C@H](CC(=O)O)NC(=O)[C@H](Cc3ccc(OCC(=O)O)cc3)NC(=O)[C@H](Cc3ccncc3)NC(=O)CSC[C@@H](C(=O)N[C@@H](CCN)C(N)=O)NC(=O)[C@H](CO)NC(=O)[C@H](C(C)(C)O)NC(=O)[C@H](CC3CCCCC3)NC(=O)[C@H](CCN)NC(=O)[C@@H](CC(C)C)NC(=O)[C@H](C)N(C)C(=O)[C@H](Cc3ccc(OCC(=O)O)cc3)NC(=O)[C@H](Cc3ccc(-c4ccccc4)cc3)NC(=O)[C@H](Cc3ccc(OCC(=O)O)cc3)NC2=O)c1 [Compound 2135] ({CH2CO}-[4Pal]Y(Carboxymethyl)D[Phe(3-Me)]Y(Carboxymethyl)[Bip]Y(Carboxymethyl)[NMeA][dL][Dab][Cha][Val(3-OH)]SC[Dab]-NH2; thioether N-14) | 0.01 µM
8 | Cc1cccc(C[C@@H]2NC(=O)[C@H](CC(=O)O)NC(=O)[C@H](Cc3ccc(OCC(=O)O)cc3)NC(=O)[C@H](Cc3ccncc3)NC(=O)CSC[C@@H](C(=O)NCC(N)=O)NC(=O)[C@H](CO)NC(=O)[C@H](C(C)C)NC(=O)[C@H](CC(C)C)NC(=O)[C@H](CC(N)=O)NC(=O)[C@@H](CC(C)C)NC(=O)[C@H](C)N(C)C(=O)[C@H](C(C)C)NC(=O)[C@H](Cc3ccc(-c4ccccc4)cc3)NC(=O)[C@H](CC(C)C)NC2=O)c1 [Compound 1557] ({CH2CO}-[4Pal]Y(Carboxymethyl)D[Phe(3-Me)]L[Bip]V[NMeA][dL]NLVSCG-NH2; thioether N-14) | 0.01 µM
9 | CC(C)C[C@H]1NC(=O)[C@H](C)N(C)C(=O)[C@H](CCCNC(=N)N)NC(=O)[C@H](Cc2ccc(-c3ccccc3)cc2)NC(=O)[C@H](C(C)C)NC(=O)[C@H](Cc2c[nH]c3ccccc23)NC(=O)[C@H](CC(=O)O)NC(=O)[C@H](Cc2ccc(O)cc2)NC(=O)[C@H](Cc2ccccc2)NC(=O)CSC[C@@H](C(=O)N[C@@H](C)C(N)=O)NC(=O)[C@H]([C@@H](C)O)NC(=O)[C@H](C(C)C)NC(=O)[C@H](CC(C)C)N(C)C(=O)[C@H](CCCNC(=N)N)NC1=O [Compound 1117] ({CH2CO}-FYDWV[Bip]R[NMeA][dL]R[NMeL]VTCA-NH2; thioether N-14) | 0.36 µM

Other lines, results leading:

Row | IC50 | Structure (SMILES)
10 | 0.12 µM | CC(C)C[C@@H]1NC(=O)[C@H](CCN)NC(=O)[C@@H](CC(C)C)NC(=O)[C@H](C)N(C)C(=O)[C@H](CCCNC(=N)N)NC(=O)[C@H](Cc2ccc(-c3ccccc3)cc2)NC(=O)[C@H](C(C)C)NC(=O)[C@H](Cc2c[nH]c3ccccc23)NC(=O)[C@H](CC(=O)O)NC(=O)[C@H](Cc2ccc(O)cc2)NC(=O)[C@H](Cc2ccccc2)NC(=O)CSC[C@@H](C(=O)N[C@@H](CCC(=O)O)C(N)=O)NC(=O)[C@H]([C@@H](C)O)NC(=O)[C@H](C(C)C)NC1=O [Compound 1175] ({CH2CO}-FYDWV[Bip]R[NMeA][dL][Dab]LVTCE-NH2; thioether N-14)
11 | 0.32 µM | COc1cc(F)cc(-c2ccc(C[C@@H]3NC(=O)[C@H](C(C)C)NC(=O)[C@H](Cc4c[nH]c5ccccc45)NC(=O)[C@H](CC(=O)O)NC(=O)[C@H](Cc4ccc(O)cc4)NC(=O)[C@H](CC(N)=O)NC(=O)CSC[C@@H](C(=O)N[C@@H](C)C(N)=O)NC(=O)[C@H]([C@@H](C)O)NC(=O)[C@H](C(C)C)NC(=O)[C@H](CC(C)C)NC(=O)[C@H](CCN)NC(=O)[C@@H](CC(C)C)NC(=O)[C@H](C)N(C)C(=O)[C@H](CCCNC(=N)N)NC3=O)cc2)c1 [Compound 1223] ({CH2CO}-NYDWV[X44]R[NMeA][dL][Dab]LVTCA-NH2; thioether N-14)
12 | 0.02 µM | CC(C)C[C@@H]1NC(=O)[C@H](Cc2c[nH]c3ccccc23)NC(=O)[C@H](CC(=O)O)NC(=O)[C@H](Cc2ccc(O)cc2)NC(=O)[C@H](Cc2ccccc2)NC(=O)CSC[C@@H](C(=O)NCC(N)=O)NC(=O)[C@H](CO)NC(=O)[C@H](C(C)C)NC(=O)[C@H](CC(C)C)NC(=O)[C@H](CC(N)=O)NC(=O)[C@@H](CC(C)C)NC(=O)[C@H](C)N(C)C(=O)[C@H](CCCNC(N)=O)NC(=O)[C@H](Cc2ccc(-c3ccccc3)cc2)NC1=O [Compound 1509] ({CH2CO}-FYDWL[Bip][Cit][NMeA][dL]NLVSCG-NH2; thioether N-14)
13 | 0.08 µM | CC(C)C[C@@H]1NC(=O)[C@H](CCN)NC(=O)[C@@H](CC(C)C)NC(=O)[C@H](C)N(C)C(=O)[C@H](CCCNC(=N)N)NC(=O)[C@H](Cc2ccc(-c3ccccc3)cc2)NC(=O)[C@H](C(C)C)NC(=O)[C@H](Cc2c[nH]c3ccccc23)NC(=O)[C@H](CC(=O)O)NC(=O)[C@H](Cc2ccc(C#N)cc2)NC(=O)[C@H](CN)NC(=O)CSC[C@@H](C(=O)N[C@@H](C)C(N)=O)NC(=O)[C@H]([C@@H](C)O)NC(=O)[C@H](C(C)C)NC1=O [Compound 1444] ({CH2CO}-[Dap][Phe(4-CN)]DWV[Bip]R[NMeA][dL][Dab]LVTCA-NH2; thioether N-14)
14 | 0.01 µM | Cc1cccc(C[C@@H]2NC(=O)[C@H](CC(=O)O)NC(=O)[C@H](Cc3ccc(O)cc3)NC(=O)[C@H](CC(N)=O)NC(=O)CSC[C@@H](C(=O)N[C@@H](C)C(N)=O)NC(=O)[C@H]([C@@H](C)O)NC(=O)[C@H](C(C)C)NC(=O)[C@H](CC(C)C)NC(=O)[C@H](CCN)NC(=O)[C@@H](CC(C)C)NC(=O)[C@H](C)N(C)C(=O)[C@H](CCCNC(N)=O)NC(=O)[C@H](Cc3ccc(-c4ccccc4)cc3)NC(=O)[C@H](C(C)C)NC2=O)c1 [Compound 1230] ({CH2CO}-NYD[Phe(3-Me)]V[Bip][Cit][NMeA][dL][Dab]LVTCA-NH2; thioether N-14)
15 | 0.01 µM | Cc1cccc(C[C@@H]2NC(=O)[C@H](CC(=O)O)NC(=O)[C@H](Cc3ccc(O)cc3)NC(=O)[C@H](CC(N)=O)NC(=O)CSC[C@@H](C(=O)N[C@@H](CCN)C(N)=O)NC(=O)[C@H]([C@@H](C)O)NC(=O)[C@H](C(C)(C)O)NC(=O)[C@H](CC3CCCCC3)NC(=O)[C@H](CCN)NC(=O)[C@@H](CC(C)C)NC(=O)[C@H](C)N(C)C(=O)[C@H](CCCNC(N)=O)NC(=O)[C@H](Cc3ccc(-c4ccccc4)cc3)NC(=O)[C@H](C(C)C)NC2=O)c1 [Compound 1701] ({CH2CO}-NYD[Phe(3-Me)]V[Bip][Cit][NMeA][dL][Dab][Cha][Val(3-OH)]TC[Dab]-NH2; thioether N-14)
